Laboratory results published in patent US20230416205A1, “COMPOUNDS, COMPOSITIONS, AND METHODS” (Denali Therapeutics Inc, priority 2020, published 2023).
Where two headings read alike, the source gives them in different places.

Tested on: NLRP3
Assay: IL-1β secretion assay in PMA-differentiated, LPS/nigericin-stimulated THP-1 cells (384-well, ELISA read-out)
Type: cell-based, human
How it was run: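 THP-1 cells differentiated with PMA (5 ng/mL, 40 h), primed in serum-free medium with 25 ng/mL LPS for 2 h, treated with compounds 1 h (0.5% DMSO), then stimulated with nigericin for 2 h at 37 °C. Supernatant IL-1β measured by ELISA; responses normalized to LPS+5 μM nigericin and LPS-only controls.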

[1] = Homo sapiens, THP-1, IL-1β secretion, PMA-differentiated THP-1 cells, LPS then nigericin stimulation, ELISA read at 450 nm, read-out: Activity
[2] = Homo sapiens, THP-1, Table 4, IL-1β secretion, LPS/nigericin-stimulated THP-1 cells, read-out: IC50
[3] = Table 4, IL-1β secretion, LPS/nigericin-stimulated THP-1 cells, read-out: IC50

| Structure (SMILES) | IC50 [1] | IC50 [2] | IC50 [3] |
| --- | --- | --- | --- |
| N#Cc1cnc(NC(=O)CN2C[C@]3(C[C@H]3F)c3cc(Br)ccc3C2=O)nc1 [Example 272] | < 10000 nM | 14 nM |  |
| C=C(F)c1ccc2c(c1)[C@@]1(C[C@H]1F)CN(CC(=O)Nc1ncc(F)cn1)C2=O [Example 273] | < 10000 nM | 59 nM |  |
| Cc1cnc(NC(=O)CN2C[C@]3(C[C@H]3F)c3cc(Br)ccc3C2=O)nc1 [Example 274] | < 10000 nM | 23 nM |  |
| N#Cc1cnc(NC(=O)CN2C[C@]3(C[C@H]3F)c3cc(Br)ccc3C2=O)c(F)c1 [Example 275, 2-[(2′r,4s)-6-bromo-2′-fluoro-1-oxospiro[3H-isoquinoline-4,1′-cyclopropane]-2-yl]-N-(5-cyano-3-fluoropyridin-2-yl)acetamide] | < 10000 nM | 70 nM |  |
| O=C(CN1C[C@]2(C[C@H]2F)c2cc(Cl)ccc2C1=O)Nc1ncc(F)cn1 [Example 276] | < 10000 nM | 79 nM |  |
| C[C@@H](F)[C@H]1CN(CC(=O)Nc2ncc(F)cn2)C(=O)c2ccc(Br)cc21 [Example 294, 2-[(4r)-6-bromo-4-[(1r)-1-fluoroethyl]-1-oxo-3,4-dihydroisoquinolin-2-yl]-N-(5-fluoropyrimidin-2-yl)acetamide] | < 10000 nM | 203 nM |  |
| O=C(CN1CC(C(F)(F)F)c2cc(I)ccc2C1=O)Nc1ncc(F)cn1 (stereo not shown) [Example 301, N-(5-fluoropyrimidin-2-yl)-2-[6-iodo-1-oxo-4-(trifluoromethyl)-3,4-dihydroisoquinolin-2-yl]acetamide] | < 10000 nM | 27 nM |  |
| C#Cc1ccc2c(c1F)C1(CC1)CN(CC(=O)Nc1ncc(F)cn1)C2=O [Example 302, 2-(6-ethynyl-5-fluoro-1-oxospiro[3H-isoquinoline-4,1′-cyclopropane]-2-yl)-N-(5-fluoropyrimidin-2-yl)acetamide] | < 10000 nM | 539 nM |  |
| O=C(CN1CC2(CC2)c2c(ccc(C3(F)CC3)c2F)C1=O)Nc1ncc(F)cn1 [Example 307, 2-[5-fluoro-6-(1-fluorocyclopropyl)-1-oxospiro[3H-isoquinoline-4,1′-cyclopropane]-2-yl]-N-(5-fluoropyrimidin-2-yl)acetamide] |  | 898 nM |  |
| O=C(CN1C[C@]2(C[C@H]2F)c2cc(Br)ccc2C1=O)Nc1ncc(C(F)(F)F)cn1 [Example 308, 2-[(2′R,4S)-6-bromo-2′-fluoro-1-oxospiro[3H-isoquinoline-4,1′-cyclopropane]-2-yl]-N-[5-(trifluoromethyl)pyrimidin-2-yl]acetamide] |  | 25 nM |  |
| O=C(CN1CC2(CC2)c2cc(Br)ccc2C1=O)Nc1ncc(C2CC2(F)F)cn1 (stereo not shown) [Example 309, 2-(6-bromo-1-oxospiro[3H-isoquinoline-4,1′-cyclopropane]-2-yl)-N-[5-(2,2-difluorocyclopropyl)pyrimidin-2-yl]acetamide] |  | 696 nM |  |
| O=C(CN1CC2(CC2)c2c(ccc(OC(F)F)c2F)C1=O)Nc1ncc(F)cn1 [Example 310, 2-[6-(difluoromethoxy)-5-fluoro-1-oxospiro[3H-isoquinoline-4,1′-cyclopropane]-2-yl]-N-(5-fluoropyrimidin-2-yl)acetamide] |  | 1060 nM |  |
| O=C(CN1CC2(CC2)c2nc(C3CC3)ccc2C1=O)Nc1ncc(F)cn1 [Example 311, 2-(2-cyclopropyl-5-oxospiro[7H-1,6-naphthyridine-8,1′-cyclopropane]-6-yl)-N-(5-fluoropyrimidin-2-yl)acetamide] |  | 1410 nM |  |
| CC(F)c1ccc2c(c1)C1(CC1)CN(CC(=O)Nc1ncc(F)cn1)C2=O (stereo not shown) [Example 312, 2-[6-(1-fluoroethyl)-1-oxospiro[3H-isoquinoline-4,1′-cyclopropane]-2-yl]-N-(5-fluoropyrimidin-2-yl)acetamide] |  | 1020 nM |  |
| CCc1ccc2c(c1)C1(CC1)CN(CC(=O)Nc1ncc(F)cn1)C2=O [Example 314, 2-(6-ethyl-1-oxospiro[3H-isoquinoline-4,1′-cyclopropane]-2-yl)-N-(5-fluoropyrimidin-2-yl)acetamide] |  | 784 nM |  |
| O=C(CN1CC2(CC2)c2c(ccc3sccc23)C1=O)Nc1ncc(F)cn1 [Example 315, N-(5-fluoropyrimidin-2-yl)-2-(6-oxospiro[8H-thieno[3,2-f]isoquinoline-9,1′-cyclopropane]-7-yl)acetamide] |  | 8920 nM |  |
| COCOc1cnc(NC(=O)CN2CC3(CC3)c3cc(Br)ccc3C2=O)nc1 [Example 316, 2-(6-bromo-1-oxospiro[3H-isoquinoline-4,1′-cyclopropane]-2-yl)-N-[5-(methoxymethoxy)pyrimidin-2-yl]acetamide] |  | 704 nM |  |
| CC1(O)CC(NC(=O)CN2C[C@]3(C[C@H]3F)c3cc(Br)ccc3C2=O)C1 (stereo partly drawn) [Example 321, N-(cis-3-hydroxy-3-methylcyclobutyl)-2-[(2′R,4S)-6-bromo-2′-fluoro-1-oxospiro[3H-isoquinoline-4,1′-cyclopropane]-2-yl]acetamide] |  | 9 nM |  |

| Structure (SMILES) | IC50 [1] | IC50 [2] | IC50 [3] |
| --- | --- | --- | --- |
| O=C(CN1CC2(CC2(F)F)c2c(ccc(C3CC3)c2F)C1=O)Nc1ncc(F)cn1 (stereo not shown) [Example 322, N-(5-fluoropyrimidin-2-yl)-2-[6-cyclopropyl-1′,1′,5-trifluoro-1-oxospiro[3H-isoquinoline-4,2′-cyclopropane]-2-yl]acetamide] |  | 38 nM |  |
| O=C(CN1CC2(CC2)c2cc(Br)ccc2C1=O)Nc1ncc2c(n1)OCC2 [Example 329, 2-(6-bromo-1-oxospiro[3H-isoquinoline-4,1′-cyclopropane]-2-yl)-N-(5,6-dihydrofuro[2,3-d]pyrimidin-2-yl)acetamide] |  | 930 nM |  |
| O=C(CN1CC2(CC2)c2cc(Br)ccc2C1=O)Nc1ncc2c(n1)COCC2 [Example 330, 2-(6-bromo-1-oxospiro[3H-isoquinoline-4,1′-cyclopropane]-2-yl)-N-(6,8-dihydro-5H-pyrano[3,4-d]pyrimidin-2-yl)acetamide] |  | 1020 nM |  |
| O=C(CN1CC2(CC2)c2cc(Br)ccc2C1=O)Nc1ncc2c(n1)CCOC2 [Example 331, 2-(6-bromo-1-oxospiro[3H-isoquinoline-4,1′-cyclopropane]-2-yl)-N-(7,8-dihydro-5H-pyrano[4,3-d]pyrimidin-2-yl)acetamide] |  | 970 nM |  |
| O=C(CN1CC2(CC2)c2cc(Br)ccc2C1=O)Nc1ncc(C2COC2)cn1 [Example 332, 2-(6-bromo-1-oxospiro[3H-isoquinoline-4,1′-cyclopropane]-2-yl)-N-[5-(oxetan-3-yl)pyrimidin-2-yl]acetamide] |  | 768 nM |  |
| O=C(CN1CC2(CC2)c2cc(Br)ccc2C1=O)Nc1nc2ccnn2cc1F [Example 333, 2-(6-bromo-1-oxospiro[3H-isoquinoline-4,1′-cyclopropane]-2-yl)-N-(6-fluoropyrazolo[1,5-a]pyrimidin-5-yl)acetamide] |  | 895 nM |  |
| O=C(CN1CC2(CC2)c2cc(Br)ccc2C1=O)N[C@H]1C[C@@H](c2ccn[nH]2)C1 [Example 334, 2-(6-bromo-1-oxospiro[3H-isoquinoline-4,1′-cyclopropane]-2-yl)-N-[3-cis-(1H-pyrazol-5-yl)cyclobutyl]acetamide] |  | 7510 nM |  |
| Cn1nc(NC(=O)CN2CC3(CC3)c3cc(Br)ccc3C2=O)ccc1=O [Example 335, 2-(6-bromo-1-oxospiro[3H-isoquinoline-4,1′-cyclopropane]-2-yl)-N-(1-methyl-6-oxopyridazin-3-yl)acetamide] |  | 2080 nM |  |
| O=C(CN1CC2(CC2)c2cc(C3COC3)ccc2C1=O)Nc1ncc(F)cn1 [Example 336, N-(5-fluoropyrimidin-2-yl)-2-[6-(oxetan-3-yl)-1-oxospiro[3H-isoquinoline-4,1′-cyclopropane]-2-yl]acetamide] |  | 23200 nM |  |
| Cn1cc(NC(=O)CN2CC3(CC3)c3cc(Br)ccc3C2=O)ncc1=O [Example 337, 2-(6-bromo-1-oxospiro[3H-isoquinoline-4,1′-cyclopropane]-2-yl)-N-(4-methyl-5-oxopyrazin-2-yl)acetamide] |  | 7470 nM |  |
| COc1ccnc(NC(=O)CN2CC3(CC3)c3cc(Br)ccc3C2=O)n1 [Example 338, 2-(6-bromo-1-oxospiro[3H-isoquinoline-4,1′-cyclopropane]-2-yl)-N-(4-methoxypyrimidin-2-yl)acetamide] |  | 1580 nM |  |
| CC(C(=O)Nc1ncc(F)cn1)N1CC2(CC2)c2cc(Br)ccc2C1=O (stereo not shown) [Example 339, 2-(6-bromo-1-oxospiro[3H-isoquinoline-4,1′-cyclopropane]-2-yl)-N-(5-fluoropyrimidin-2-yl)propanamide] |  | 8290 nM |  |
| COC1(C)CC(NC(=O)CN2CC3(CC3)c3cc(Br)ccc3C2=O)C1 (stereo not drawn) [Example 340, 2-(6-bromo-1-oxospiro[3H-isoquinoline-4,1′-cyclopropane]-2-yl)-N-(3-trans-methoxy-3-methylcyclobutyl)acetamide] |  |  | 7870 nM |
| COC1(C)CC(NC(=O)CN2CC3(CC3)c3cc(Br)ccc3C2=O)C1 (stereo not drawn) [Example 341, 2-(6-bromo-1-oxospiro[3H-isoquinoline-4,1′-cyclopropane]-2-yl)-N-(3-cis-methoxy-3-methylcyclobutyl)acetamide] |  |  | 2410 nM |
| CN(C(=O)CN1CC2(CC2)c2cc(Br)ccc2C1=O)C1CC(C)(O)C1 (stereo not drawn) [Example 342, 2-(6-bromo-1-oxospiro[3H-isoquinoline-4,1′-cyclopropane]-2-yl)-N-(3-cis-hydroxy-3-methylcyclobutyl)-N-methylacetamide] |  | 17100 nM |  |
| O=C(CN1CC2(CC2)c2cc(Br)ccc2C1=O)Nc1nc2ccccn2c1F [Example 343, 2-(6-bromo-1-oxospiro[3H-isoquinoline-4,1′-cyclopropane]-2-yl)-N-(3-fluoroimidazo[1,2-a]pyridin-2-yl)acetamide] |  | 7500 nM |  |
| CC1(C(F)(F)F)CN(CC(=O)Nc2ncc(F)cn2)C(=O)c2c(Br)cccc21 (stereo not shown) [Example 344, 2-[8-bromo-4-methyl-1-oxo-4-(trifluoromethyl)-3H-isoquinolin-2-yl]-N-(5-fluoropyrimidin-2-yl)acetamide] |  | 27600 nM |  |
